{"source": "BindingDB's records for doi:10.1002/(SICI)1098-2396(200002)35:2<79::AID-SYN1>3.0.CO;2-X", "about": "(Institut De Recherches Servier, 2000)", "molecular_target": "T1, Alpha-1D adrenergic receptor (Homo sapiens, UniProt P25100)", "T1 sequence (P25100 whole entry)": "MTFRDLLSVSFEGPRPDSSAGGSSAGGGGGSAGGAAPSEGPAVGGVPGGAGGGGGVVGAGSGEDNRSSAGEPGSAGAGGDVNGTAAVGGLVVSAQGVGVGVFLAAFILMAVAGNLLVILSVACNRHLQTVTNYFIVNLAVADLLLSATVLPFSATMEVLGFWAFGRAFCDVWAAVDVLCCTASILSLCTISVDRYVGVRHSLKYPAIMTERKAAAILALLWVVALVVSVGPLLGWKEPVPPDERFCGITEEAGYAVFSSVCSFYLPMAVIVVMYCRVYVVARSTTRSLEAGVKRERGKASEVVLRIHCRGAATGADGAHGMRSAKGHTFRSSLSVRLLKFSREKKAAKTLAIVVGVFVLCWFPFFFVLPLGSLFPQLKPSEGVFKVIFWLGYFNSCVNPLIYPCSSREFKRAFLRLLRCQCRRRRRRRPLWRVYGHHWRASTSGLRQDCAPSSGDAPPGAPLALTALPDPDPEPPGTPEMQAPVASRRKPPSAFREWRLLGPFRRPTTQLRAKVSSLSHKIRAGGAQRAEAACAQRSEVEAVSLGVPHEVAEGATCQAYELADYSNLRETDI", "note": "pKi: −log10 of the molar value."}
{"smiles": "Fc1cccc2c1OC1CNCC1O2", "note": "(stereo unspecified) [CAS_105182-45-4]", "values": [{"measurement": "pKi", "result": 6.90}]}
